According to the NIST ThermoML archive (doi:10.1021/je060271a):
“And” between values parts separate entries of the source, which are not always exact repeats. Identical values can stand only once.

Conditions: Liquid, Vibrating tube method

CCCCCCC(=O)OCC(COC(=O)CCCCCC)(COC(=O)CCCCCC)COC(=O)CCCCCC [pentaerythritol tetraheptanoate]
Conditions	mass density
323.14 K, 25915 kPa	972.2 kg/m3
323.14 K, 25942 kPa	972.3 kg/m3
323.14 K, 25974 kPa	972.2 kg/m3
323.14 K, 26002 kPa	972.3 kg/m3
323.14 K, 26088 kPa	972.3 kg/m3
323.14 K, 26774 kPa	972.7 kg/m3
323.14 K, 26808 kPa	972.6 kg/m3
323.14 K, 26837 kPa	972.6 kg/m3
323.14 K, 26866 kPa	972.9 kg/m3
323.14 K, 27024 kPa	972.9 kg/m3
323.14 K, 27055 kPa	972.9 kg/m3
323.14 K, 27085 kPa	972.9 kg/m3
323.14 K, 27114 kPa	973 kg/m3
323.14 K, 27150 kPa	973 kg/m3
323.14 K, 27179 kPa	972.9 kg/m3
323.14 K, 27214 kPa	973 kg/m3
323.14 K, 27244 kPa	973 kg/m3
323.14 K, 27274 kPa	973.1 kg/m3
323.14 K, 27565 kPa	973.2 kg/m3
323.14 K, 27596 kPa	973.2 kg/m3
323.14 K, 27731 kPa	973.3 kg/m3
323.14 K, 27762 kPa	973.3 kg/m3
323.14 K, 27825 kPa	973.3 kg/m3
323.14 K, 27863 kPa	973.4 kg/m3
323.14 K, 27895 kPa	973.4 kg/m3
323.14 K, 28027 kPa	973.5 kg/m3
323.14 K, 28373 kPa	973.8 kg/m3
323.14 K, 28406 kPa	973.7 kg/m3
323.14 K, 28439 kPa	973.7 kg/m3
323.14 K, 28757 kPa	973.8 kg/m3
323.14 K, 28791 kPa	973.9 kg/m3
323.14 K, 28831 kPa	973.9 kg/m3
323.14 K, 28904 kPa	973.9 kg/m3
323.14 K, 28938 kPa	974 kg/m3
323.14 K, 28973 kPa	974.1 kg/m3
323.14 K, 29048 kPa	974.1 kg/m3
323.14 K, 29083 kPa	974.1 kg/m3
323.14 K, 29124 kPa	974.1 kg/m3
323.14 K, 29158 kPa	974.1 kg/m3
323.14 K, 29193 kPa	974.1 kg/m3
323.14 K, 29227 kPa	974.2 kg/m3
323.14 K, 29270 kPa	974.2 kg/m3
323.14 K, 29304 kPa	974.3 kg/m3
323.14 K, 29346 kPa	974.3 kg/m3
323.14 K, 29381 kPa	974.2 kg/m3
323.14 K, 29416 kPa	974.2 kg/m3
323.14 K, 29451 kPa	974.2 kg/m3
323.14 K, 29494 kPa	974.4 kg/m3
323.14 K, 29529 kPa	974.4 kg/m3
323.14 K, 30197 kPa	974.6 kg/m3
323.14 K, 30480 kPa	974.8 kg/m3
323.14 K, 30518 kPa	975 kg/m3
323.14 K, 30556 kPa	974.9 kg/m3
323.14 K, 30596 kPa	974.9 kg/m3
323.14 K, 30642 kPa	975 kg/m3
323.14 K, 30681 kPa	975.1 kg/m3
323.14 K, 30728 kPa	975.2 kg/m3
323.14 K, 30768 kPa	975 kg/m3
323.14 K, 30807 kPa	975.1 kg/m3
323.14 K, 30846 kPa	975 kg/m3
323.14 K, 30893 kPa	975.2 kg/m3
323.14 K, 30933 kPa	975.1 kg/m3
323.14 K, 30973 kPa	975.1 kg/m3
323.14 K, 31020 kPa	975.2 kg/m3
323.14 K, 31060 kPa	975.2 kg/m3
323.14 K, 31108 kPa	975.2 kg/m3
323.14 K, 31148 kPa	975.2 kg/m3
323.14 K, 31188 kPa	975.3 kg/m3
323.14 K, 31237 kPa	975.2 kg/m3
323.14 K, 31277 kPa	975.4 kg/m3
323.14 K, 31319 kPa	975.3 kg/m3
323.14 K, 31359 kPa	975.4 kg/m3
323.14 K, 31408 kPa	975.4 kg/m3
323.14 K, 31448 kPa	975.4 kg/m3
323.14 K, 31497 kPa	975.6 kg/m3
323.14 K, 31539 kPa	975.5 kg/m3
323.14 K, 31580 kPa	975.4 kg/m3
323.14 K, 31621 kPa	975.5 kg/m3
323.14 K, 31671 kPa	975.6 kg/m3
323.14 K, 31712 kPa	975.5 kg/m3
323.14 K, 31762 kPa	975.8 kg/m3
323.14 K, 31804 kPa	975.8 kg/m3
323.14 K, 31847 kPa	975.7 kg/m3
323.14 K, 31898 kPa	975.6 kg/m3
323.14 K, 31940 kPa	975.7 kg/m3
323.14 K, 31982 kPa	975.8 kg/m3
323.14 K, 32450 kPa	976.1 kg/m3
323.14 K, 32496 kPa	976 kg/m3
323.14 K, 32540 kPa	976 kg/m3
323.14 K, 32584 kPa	976.2 kg/m3
323.14 K, 32637 kPa	976.1 kg/m3
323.14 K, 32681 kPa	976.1 kg/m3
323.14 K, 33266 kPa	976.4 kg/m3
323.14 K, 33360 kPa	976.5 kg/m3
323.14 K, 33416 kPa	976.4 kg/m3
323.14 K, 34625 kPa	977.3 kg/m3
323.15 K, 99.4 kPa	955.6 kg/m3
323.15 K, 99.5 kPa	955.5 kg/m3 and 955.6 kg/m3 and 955.7 kg/m3
323.15 K, 99.7 kPa	955.7 kg/m3 and 955.6 kg/m3
323.15 K, 99.8 kPa	955.7 kg/m3
323.15 K, 99.9 kPa	955.7 kg/m3 and 955.8 kg/m3 and 955.6 kg/m3
323.15 K, 100 kPa	955.7 kg/m3 and 955.8 kg/m3 and 955.6 kg/m3
323.15 K, 100.2 kPa	955.7 kg/m3 [middle of 4 runs]
323.15 K, 100.4 kPa	955.7 kg/m3 and 955.8 kg/m3 and 955.6 kg/m3
323.15 K, 100.5 kPa	955.6 kg/m3 and 955.7 kg/m3
323.15 K, 100.6 kPa	955.6 kg/m3 and 955.7 kg/m3 and 955.8 kg/m3
323.15 K, 100.7 kPa	955.8 kg/m3 and 955.7 kg/m3 and 955.5 kg/m3
323.15 K, 100.9 kPa	955.7 kg/m3
323.15 K, 101.1 kPa	955.6 kg/m3 and 955.7 kg/m3
323.15 K, 101.3 kPa	955.6 kg/m3
323.15 K, 101.5 kPa	955.8 kg/m3 and 955.7 kg/m3
323.15 K, 101.6 kPa	955.7 kg/m3
